Source: PubChem BioAssay (NCI)
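All cell lines were grown in 96-well plates and treated with compound for 48 hours. TGI marks complete inhibition of growth.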

Legend:
Experiment in all cases: NCI tumour cell line growth inhibition, 48 h
HT29 colon = test system: HT29 colon
KM20L2 colon = test system: KM20L2 colon
LXFL 529 NSCLC = test system: LXFL 529 NSCLC
UACC-62 melanoma = test system: UACC-62 melanoma
RXF-631 renal = test system: RXF-631 renal
HCT-116 colon = test system: HCT-116 colon
K-562 leukemia = test system: K-562 leukemia
HCT-15 colon = test system: HCT-15 colon
OVCAR-4 ovarian = test system: OVCAR-4 ovarian
OVCAR-3 ovarian = test system: OVCAR-3 ovarian
OVCAR-5 ovarian = test system: OVCAR-5 ovarian
XF 498 CNS = test system: XF 498 CNS
UACC-257 melanoma = test system: UACC-257 melanoma
786-0 renal = test system: 786-0 renal
DMS 114 small cell lung = test system: DMS 114 small cell lung
IGROV1 ovarian = test system: IGROV1 ovarian
SNB-78 CNS = test system: SNB-78 CNS
SR leukemia = test system: SR leukemia
NCI-H226 lung = test system: NCI-H226 lung
ACHN renal = test system: ACHN renal
M14 melanoma = test system: M14 melanoma
OVCAR-8 ovarian = test system: OVCAR-8 ovarian
SK-OV-3 ovarian = test system: SK-OV-3 ovarian
KM12 colon = test system: KM12 colon
CCRF-CEM leukemia = test system: CCRF-CEM leukemia
A498 renal = test system: A498 renal
SF-539 CNS = test system: SF-539 CNS
HOP-62 NSCLC = test system: HOP-62 NSCLC
A549 NSCLC = test system: A549 NSCLC
COLO 205 colon = test system: COLO 205 colon
HCC-2998 colon = test system: HCC-2998 colon
EKVX NSCLC = test system: EKVX NSCLC
RPMI-8226 leukemia = test system: RPMI-8226 leukemia
U251 CNS = test system: U251 CNS
MALME-3M melanoma = test system: MALME-3M melanoma
LOX IMVI melanoma = test system: LOX IMVI melanoma
CAKI-1 renal = test system: CAKI-1 renal
NCI-H23 lung = test system: NCI-H23 lung
SN12C renal = test system: SN12C renal
TK-10 renal = test system: TK-10 renal
RXF 393 renal = test system: RXF 393 renal
DMS 273 small cell lung = test system: DMS 273 small cell lung
SK-MEL-2 melanoma = test system: SK-MEL-2 melanoma
SW-620 colon = test system: SW-620 colon
UO-31 renal = test system: UO-31 renal
SF-295 CNS = test system: SF-295 CNS
HL-60(TB) leukemia = test system: HL-60(TB) leukemia
MOLT-4 leukemia = test system: MOLT-4 leukemia
DLD-1 colon = test system: DLD-1 colon
SK-MEL-28 melanoma = test system: SK-MEL-28 melanoma
M19-MEL melanoma = test system: M19-MEL melanoma
HOP-92 NSCLC = test system: HOP-92 NSCLC
HOP-18 NSCLC = test system: HOP-18 NSCLC
NCI-H460 lung = test system: NCI-H460 lung
SF-268 CNS = test system: SF-268 CNS
SNB-75 CNS = test system: SNB-75 CNS

In the case of `COC(=O)c1cc(-c2ccc(OC)c(OC)c2)oc1-c1ccc(OC)c(OC)c1`, the TGI (HT29 colon) is reported as > 100 µM, the TGI (KM20L2 colon) is reported as > 100 µM and the TGI (LXFL 529 NSCLC) is reported as > 100 µM. For the same molecule, the TGI (UACC-62 melanoma) was > 100 µM, the TGI (RXF-631 renal) was > 100 µM and the TGI (HCT-116 colon) was > 100 µM. For the same molecule, the TGI (K-562 leukemia) was > 100 µM, the TGI (HCT-15 colon) was > 100 µM and the TGI (OVCAR-4 ovarian) was > 100 µM. For the same molecule, the TGI (OVCAR-3 ovarian) was > 100 µM, the TGI (OVCAR-5 ovarian) was > 100 µM and the TGI (XF 498 CNS) was > 100 µM. The TGI (UACC-257 melanoma) was > 100 µM, the TGI (786-0 renal) was > 100 µM and the TGI (DMS 114 small cell lung) was 95.5 µM. The TGI (IGROV1 ovarian) was > 100 µM, the TGI (SNB-78 CNS) was > 100 µM and the TGI (SR leukemia) was > 100 µM. The TGI (NCI-H226 lung) was > 100 µM, the TGI (ACHN renal) was > 100 µM and the TGI (M14 melanoma) was > 100 µM. The TGI (OVCAR-8 ovarian) was > 100 µM, the TGI (SK-OV-3 ovarian) was > 100 µM and the TGI (KM12 colon) was > 100 µM. The TGI (CCRF-CEM leukemia) was > 100 µM, the TGI (A498 renal) was 59.5 µM and the TGI (SF-539 CNS) was 96.2 µM. The TGI (HOP-62 NSCLC) was > 100 µM, the TGI (A549 NSCLC) was > 100 µM and the TGI (COLO 205 colon) was 39.4 µM. The TGI (HCC-2998 colon) was > 100 µM, the TGI (EKVX NSCLC) was > 100 µM and the TGI (RPMI-8226 leukemia) was > 100 µM. The TGI (U251 CNS) was > 100 µM, the TGI (MALME-3M melanoma) was > 100 µM and the TGI (LOX IMVI melanoma) was > 100 µM. For the same molecule, the TGI (CAKI-1 renal) was > 100 µM, the TGI (NCI-H23 lung) was > 100 µM and the TGI (SN12C renal) was 93.6 µM. For the same molecule, the TGI (TK-10 renal) was > 100 µM, the TGI (RXF 393 renal) was 72.7 µM and the TGI (DMS 273 small cell lung) was > 100 µM. The TGI (SK-MEL-2 melanoma) was > 100 µM, the TGI (SW-620 colon) was > 100 µM and the TGI (UO-31 renal) was > 100 µM. For the same molecule, the TGI (SF-295 CNS) was > 100 µM, the TGI (HL-60(TB) leukemia) was > 100 µM and the TGI (MOLT-4 leukemia) was > 100 µM. The TGI (DLD-1 colon) was > 100 µM, the TGI (SK-MEL-28 melanoma) was > 100 µM and the TGI (M19-MEL melanoma) was > 100 µM. The TGI (HOP-92 NSCLC) was 71.4 µM, the TGI (HOP-18 NSCLC) was > 100 µM and the TGI (NCI-H460 lung) was > 100 µM. The TGI (SF-268 CNS) was > 100 µM and the TGI (SNB-75 CNS) was > 100 µM.
